Results taken from patent publication US9499502B2, “5-substituted iminothiazines and their mono- and dioxides as BACE inhibitors, compositions, and their use” (Merck Sharp & Dohme Corp., priority 2011, dated 2016).
Read-outs that look alike come from different tables or passages of the source.

Legend:
[1] = target: purified human autoBACE-2 (Homo sapiens (Human), UniProt Q9Y5Z0); experiment: BACE-2 Assay (BACE-HTRF assay); assay type: biochemical; conditions: for inhibition at 10 µM: read-out: inhibition of BACE2 at 10 μM
purified human autoBACE-2, sequence (Q9Y5Z0 63-473): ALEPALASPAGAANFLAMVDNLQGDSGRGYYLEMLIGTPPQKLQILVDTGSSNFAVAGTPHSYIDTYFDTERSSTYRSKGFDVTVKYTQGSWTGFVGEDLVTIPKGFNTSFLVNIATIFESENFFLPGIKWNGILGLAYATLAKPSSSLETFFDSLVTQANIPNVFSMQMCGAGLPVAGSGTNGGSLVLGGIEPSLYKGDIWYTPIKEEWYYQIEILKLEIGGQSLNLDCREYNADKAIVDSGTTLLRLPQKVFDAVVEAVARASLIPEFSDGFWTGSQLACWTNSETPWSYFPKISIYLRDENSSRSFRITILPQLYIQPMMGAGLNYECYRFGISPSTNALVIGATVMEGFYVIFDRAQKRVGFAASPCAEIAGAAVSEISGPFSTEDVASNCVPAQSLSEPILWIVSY
Experimental: Inhibitor IC50s at purified human autoBACE-2 are determined in a time-resolved endpoint proteolysis assay that measures hydrolysis of the QSY7-[…]-Eu-amide FRET peptide substrate (BACE-HTRF assay). […] DMSO is present at 5% final concentration in the assay. Following laser excitation of sample wells at 320 nm, the fluorescence signal at 620 nm is collected for 400 ms following a 50 μs delay on a RUBYstar HTRF plate reader (BMG Labtechnologies). Raw RFU data is normalized to maximum (1.0 nM BACE/DMSO) and minimum (no enzyme/DMSO) RFU values. […] The Ki values are calculated from the IC50 using the Cheng-Prusoff equation.

[2] = target: soluble human BACE1 catalytic domain (Homo sapiens (Human), UniProt P56817); experiment: BACE1 HTRF FRET Assay; conditions: for inhibition at 10 µM: read-out: BACE1 inhibition, % Inh. at 10 μM, at 10 μM; for inhibition at 1 µM: read-out: BACE1 % Inh. at 1 μM, at 1 μM
soluble human BACE1 catalytic domain, sequence (P56817 75-416): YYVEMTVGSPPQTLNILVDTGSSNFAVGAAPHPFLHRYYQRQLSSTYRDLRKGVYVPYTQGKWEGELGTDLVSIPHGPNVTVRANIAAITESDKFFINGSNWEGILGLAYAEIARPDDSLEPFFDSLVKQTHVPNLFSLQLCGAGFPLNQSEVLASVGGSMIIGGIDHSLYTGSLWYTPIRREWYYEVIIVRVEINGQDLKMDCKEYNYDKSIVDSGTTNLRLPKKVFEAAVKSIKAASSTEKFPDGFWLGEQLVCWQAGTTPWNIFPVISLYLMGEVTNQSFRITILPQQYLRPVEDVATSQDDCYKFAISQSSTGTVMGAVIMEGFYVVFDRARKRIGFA

[3] = Ki calculated from IC50 using the Cheng-Prusoff equation, read-out: BACE2 Ki
[4] = read-out: BACE1 Ki, Ki calculated from IC50 using the Cheng-Prusoff equation

Row | SMILES | Ki [1, 3] | Ki [2, 4] | further results
1 | CC1(C)C(=N)N[C@](C)(c2sc(-c3nnc(-c4ccc(F)cc4)o3)cc2F)CS1(=O)=O [Example 27bg] | ≤ 20 nM | – | Ki ([2]; read-out: BACE1 Ki): 79.3 nM
2 | C[C@@]1(c2cccc(F)c2)C(=N)N[C@](C)(c2sc(Br)cc2F)CS1(=O)=O [Entry 88] | – | – | inhibition at 10 µM [1]: 29 to 47%; inhibition at 10 µM [2]: 34%
3 | CC1(C)C(=N)N[C@](C)(c2c(F)c(F)cc(NC(=O)c3ccc(C(F)(F)F)cn3)c2F)CS1(=O)=O [Example 9ad] | 41 nM | 7.9 nM | –
4 | CC1(C)C(=N)N[C@](C)(c2sc(-c3nnc(-c4ccc(Cl)cc4)o3)cc2Cl)CS1(=O)=O [Example 27bc] | ≤ 20 nM | 35.9 nM | –
5 | C[C@@]1(c2ccc(F)cc2)C(=N)N[C@](C)(c2cc(NC(=O)c3ccc(F)cn3)ccc2F)CS1(=O)=O [Example 9df-b] | – | 165 nM | Ki [1]: 11 to 100 nM
6 | COc1cnc(C(=O)Nc2ccc(F)c([C@]3(C)CS(=O)(=O)[C@](C)(c4ccccn4)C(=N)N3)c2)cn1 [Example 9cy-b] | 101 to 700 nM | 209 nM | –
7 | C[C@@]1(c2ccccn2)C(=N)N[C@](C)(c2cc(NC(=O)c3ccc(C(F)(F)F)cn3)ccc2F)CS1(=O)=O [Example 9cz-b] | 101 to 700 nM | 181 nM | –
8 | C[C@@]1(c2cccc(F)c2)C(=N)N[C@](C)(c2cc(N)ccc2F)CS1(=O)=O [Entry 61] | – | – | inhibition at 10 µM [1]: 29 to 47%; inhibition at 10 µM [2]: 27%
9 | C[C@@]1(C2CCC2)C(=N)N[C@](C)(c2cc(NC(=O)c3ccc(F)cn3)ccc2F)CS1(=O)=O [Example 9dv-b] | 11 to 100 nM | 304 nM | –
10 | CC1=NOC(CNC(=O)c2cc(Cl)c([C@]3(C)CS(=O)(=O)C(C)(C)C(=N)N3)s2)C1 (stereo partly drawn) [Example 22f] | 1800 nM | 616 nM | –
11 | Cc1nc2cc(CC3(C)C(=N)N[C@](C)(c4cc(F)ccc4F)CS3(=O)=O)ccc2s1 (stereo partly drawn) [Example 32-a] | – | – | inhibition at 10 µM [1]: 1 to 24%; BACE1 inhibition, % Inh. at 10 μM ([2]; at 10 μM): 0% Inh at 10 μM
12 | COc1ccccc1Nc1ccc(F)c(C2(C)CS(=O)(=O)C(C)(C)C(=N)N2)n1 (stereo not drawn) [Example 30a] | 517 nM | – | Ki ([2]; BACE1 Ki (nM)): 5280 nM
13 | CC1(C)C(=N)N[C@](C)(c2nc(NC(=O)c3cnc(Br)cn3)ccc2F)CS1(=O)=O [Example 9ck] | ≤ 10 nM | 21.7 nM | –
14 | C=CC[C@]1(C)C(=N)N[C@](C)(c2cc(NC(=O)c3cnc(OC)cn3)ccc2F)CS1(=O)=O [Example 9dm-b] | 11 to 100 nM | 33.6 nM | –
15 | CC1(C)C(=N)N[C@](C)(c2cc(NC(=O)c3ccc(C(F)(F)F)cn3)cc(Cl)c2F)CS1(=O)=O [Example 9v] | 13 nM | 9.6 nM | –
16 | CC1(C)C(=N)N[C@](C)(c2cc(-c3cccc(C#N)c3)ccc2F)CS1(=O)=O [compound 10] | < 200 nM | – | inhibition at 1 µM [2]: 36%
17 | C[C@@]1(c2cccc(F)c2)C(=N)N[C@](C)(c2cc(NC(=O)c3ccc(F)cn3)ccc2F)CS1(=O)=O [Example 9da-b] | 11 to 100 nM | 198 nM | –
18 | CC1(C)C(=N)N[C@](C)(c2cc(-c3cc(F)cc(-c4nnco4)c3)ccc2F)CS1(=O)=O [Example 16a] | 445 nM | – | inhibition at 1 µM [2]: 43%
19 | CC1(C)C(=N)N[C@](C)(c2sc(N3Cc4cc(F)ccc4C3=O)cc2Cl)CS1(=O)=O [Example 35a] | 1400 nM | – | Ki ([2]; read-out: BACE1 Ki): 6080 nM
20 | COCC(=O)Nc1cc(F)c(F)c([C@]2(C)CS(=O)(=O)C(C)(C)C(=N)N2)c1 [Example 9bk] | 12 nM | 112 nM | –
21 | COc1cnc(C(=O)Nc2ccc(F)c([C@]3(C)CS(=O)(=O)[C@](C)(C4CCC4)C(=N)N3)c2)cn1 [Example 9dy-b] | 101 to 700 nM | 499 nM | –
22 | Cc1cnc(C(=O)Nc2cc(F)c(F)c([C@]3(C)CS(=O)(=O)C(C)(C)C(=N)N3)c2)cn1 [Example 9bo] | 22 nM | 69 nM | –
23 | Cc1nc2ccc(CC3(C)C(=N)N[C@](C)(c4cc(F)ccc4F)CS3(=O)=O)cc2s1 (mixture of isomers) [32b-a and 32b-b] | – | – | inhibition at 10 µM [1]: 1 to 24%; inhibition at 10 µM [2]: 11%
24 | Cc1ccc(C(=O)Nc2cc(F)c(F)c([C@]3(C)CS(=O)(=O)C(C)(C)C(=N)N3)c2)nc1 [Example 9bh] | 4 nM | 13 nM | –

Row | SMILES | Ki [1, 3] | Ki [2, 4] | further results
25 | C[C@@]1(c2sc(-c3cccc(C#N)c3)cc2F)CS(=O)(=O)[C@@](C)(c2ccccc2F)C(=N)N1 [Example 27bs-a] | 9 nM | – | Ki ([2]; read-out: BACE1 Ki): 68.3 nM
26 | CC1(C)C(=N)N[C@](C)(c2sc(-c3cccc(C(F)(F)F)c3)cc2Cl)CS1(=O)=O [Example 27e] | ≤ 10 nM | – | Ki ([2]; read-out: BACE1 Ki): 74.5 nM
27 | COc1ccc(C(=O)Nc2ccc(F)c([C@]3(C)CS(=O)(=O)[C@](C)(CC(F)(F)F)C(=N)N3)c2)nc1 [Example 9dq-b] | 11 to 100 nM | 54.3 nM | –
28 | CC1(C)C(=N)N[C@](C)(c2sc(C(=O)Nc3cccc(Cl)n3)cc2Cl)CS1(=O)=O [Example 20] | 8 nM | 26.9 nM | –
29 | C[C@@]1(c2cc(NC(=O)c3ccc(C(F)(F)F)cn3)ccc2F)CS(=O)(=O)[C@](C)(CC2CC2)C(=N)N1 [Example 9dl-b] | 11 to 100 nM | 33.2 nM | –
30 | COc1cccc(-c2cc(F)c([C@]3(C)CS(=O)(=O)[C@@](C)(CC(F)(F)F)C(=N)N3)s2)c1 [Example 27bl-a] | 9 nM | – | Ki ([2]; read-out: BACE1 Ki): 223 nM
31 | CC1(C)C(=N)N[C@](C)(c2cc(N)ccc2F)CS1(=O)=O [Example 2-2] | – | – | Ki [1]: 500 to 10000 nM; Ki ([2]; read-out: BACE1 inhibition, Ki): 6100 nM
32 | C[C@@]1(c2cc(NC(=O)c3ccc(C(F)(F)F)cn3)ccc2F)CS(=O)(=O)[C@@](C)(c2ccccn2)C(=N)N1 [Example 9cz-a] | 11 to 100 nM | 6 nM | –
33 | COCC(=O)Nc1ccc(F)c([C@]2(C)CS(=O)(=O)C(C)(C)C(=N)N2)c1 [Example 9at] | 14 nM | 60 nM | –
34 | CC1(C)C(=N)N[C@](C)(c2sc(-c3ccc(F)c(C(F)(F)F)c3)cc2Cl)CS1(=O)=O [Example 27a] | < 200 nM | 172 nM | –
35 | C[C@@]1(C2CC2)C(=N)N[C@](C)(c2cc([N+](=O)[O-])ccc2F)CS1(=O)=O [Entry 30] | – | – | inhibition at 10 µM [1]: 29 to 47%; inhibition at 10 µM [2]: 30%
36 | CC1(C)C(=N)N[C@](C)(c2sc(-c3cccc(C#N)c3)cc2F)CS1(=O)=O [Example 27aq] | ≤ 20 nM | – | Ki ([2]; read-out: BACE1 Ki): 76 nM
37 | CC1(C)C(=N)N[C@](C)(c2sc(-c3nnc(-c4ccc(Cl)cc4)o3)cc2F)CS1(=O)=O [Example 27bf] | ≤ 20 nM | – | Ki ([2]; read-out: BACE1 Ki): 30.9 nM
38 | COc1cccc2cc(-c3cc(F)c([C@]4(C)CS(=O)(=O)C(C)(C)C(=N)N4)s3)[nH]c12 [Example 27an] | ≤ 20 nM | – | Ki ([2]; read-out: BACE1 Ki): 21 nM
39 | C[C@@]1(c2ccccn2)C(=N)N[C@](C)(c2cc(NC(=O)c3ccc(F)cn3)ccc2F)CS1(=O)=O [Example 9cv-b] | 11 to 100 nM | 187 nM | –
40 | CC1(C)C(=N)N[C@](C)(c2sc(-c3cc(F)cc(-c4nnco4)c3)cc2F)CS1(=O)=O [Example 27as] | ≤ 20 nM | – | Ki ([2]; read-out: BACE1 Ki): 9.4 nM
41 | COc1cnc(C(=O)Nc2ccc(F)c([C@]3(C)CS(=O)(=O)[C@@](C)(C(C)C)C(=N)N3)c2)cn1 [Example 9ec-a] | 11 to 100 nM | 14.9 nM | –
42 | CC1(C)C(=N)N[C@](C)(c2sc(-c3cccc(-n4nccn4)c3)cc2Cl)CS1(=O)=O [Example 27u] | ≤ 10 nM | – | Ki ([2]; read-out: BACE1 Ki): 49.2 nM
43 | CC1(C)C(=N)N[C@](C)(c2cc(NC(=O)C(F)F)cc(F)c2F)CS1(=O)=O [Example 9bd] | 40 nM | 233 nM | –
44 | CC1(C)C(=N)N[C@](C)(c2nc(NC(=O)c3ccc(C(F)(F)F)cn3)ccc2F)CS1(=O)=O [Example 9cf] | 40 nM | 25.7 nM | –
45 | COc1ccc(C(=O)Nc2ccc(F)c([C@]3(C)CS(=O)(=O)[C@](C)(c4ccccn4)C(=N)N3)c2)nc1 [Example 9cx-b] | 101 to 700 nM | 282 nM | –
46 | CC1(C)C(=N)N[C@](C)(c2sc(-c3cc(F)cc(-c4cnco4)c3)cc2F)CS1(=O)=O [Example 27at] | ≤ 20 nM | – | Ki ([2]; read-out: BACE1 Ki): 26 nM
47 | COc1cnc(C(=O)Nc2cc(F)c(F)c([C@]3(C)CS(=O)(=O)C(C)(C)C(=N)N3)c2)cn1 [Example 9n] | 12 nM | 6.6 nM | –
48 | COc1ccc(C(=O)Nc2ccc(F)c([C@]3(C)CS(=O)(=O)[C@](C)(C4CCC4)C(=N)N3)c2)nc1 [Example 9dx-b] | 101 to 700 nM | 307 nM | –
